{
  "source": "patent US20240316012A1",
  "about": "“METHODS FOR TREATING LYMPHOMA” (Northwestern University, priority 2023, published 2024)",
  "system": "H3K27 acetylation",
  "test": "Flow cytometry for H3K27ac after in vitro culture with inhibitors",
  "format": "cell-based, mouse",
  "text": "Data are normalized to viable cell number and z-scores per metabolite. […] P=two-sided Student's t-test. The data are presented as the mean±SEM and individual data points for each animal. Cross indicates death of the animal. […] P=two-sided Student's t-test. Shown are the mean±SD and individual data points. […] Data are presented as mean±SD and individual data points. […] P=paired two-sided Student's t-test. Data are presented as the mean±SD. […] Data was normalized as in (a). P=two-sided Student's t-test. The data are presented as the mean±SEM. […] Experiment as in (h) (n=3 mice genotype). Data was normalized as in (a). P=two-sided Student's t-test. Data are presented as the mean±SD. FIGS. 3-D, Representative data from two independent experiments with n=3 biological replicates per group. FIG. 3E, Representative data from two independent experiments with two biological replicates per group. FIG. 3F, Representative data from two independent experiments. FIG. 3G, Representative data from two independent experiments with three biological replicates per group. FIG. 3H, Representative data from one experiment with four biological replicates per group. FIG. 3I, Representative data from one experiment with three biological replicates per group FIGS. 4A-4H show ACLY is a critical effector molecule downstream of PD-1. […] ITK-SYK^+ cells were FACS-sorted from ITK-[…]2 mice on d5 after TAM and 12 h anti-PD-L1 or isotype control antibody treatment (i.p., 200 μg). P=paired two-sided Student's t-test. Data are presented as the mean±SD. […] Spleen-derived single-cell suspensions were FACS-sorted from ITK-[…]2 mice on d5 after TAM and cultured in vitro overnight with anti-PD-L1 or isotype control antibodies and the PI3K inhibitors (“iPI3K”) Wortmannin (20 nM), LY294002 (20 μM), or DMSO. […] Spleen-derived lymphocytes, FACS-sorted from ITK-[…]2 and ITK-[…]2; Pdcd1^-/- mice on d5 after TAM were incubated for three days in vitro. P=two-sided Student's t-test. Data are presented as the mean±SD. […] Protein lysates were generated after 48 h in vitro culture. RNP, ribonucleoprotein. […] P=two-sided Logrank-test. […] ITK-SYK^+ cells were FACS-sorted from ITK-[…]2 (“Pdcd1^+/+”) and ITK-[…]2; Pdcd1^-/- (“Pdcd1^-/-”) mice on d5 after TAM, fixed, and processed for anti-H3K27ac ChIP-seq analysis. ChIP-seq, chromatin immunoprecipitation sequencing; TSS, transcription start site. FIG. 4B, Representative data from three independent experiments with three biological replicates per group. FIG. 4C, Representative data from two independent experiments with two biological replicates. FIGS. 4D and 4E, Representative data from 3 independent experiments. FIGS. 4F and 4G, Data from one experiment with n=5 mice per group. […] (8752, CST), and assessed by flow cytometry. […]",
  "data": [
    {"molecule": "COc1ccc(-c2ccccc2)cc1NS(=O)(=O)c1cc(Cl)cc(Cl)c1O", "note": "[BMS-303141]", "values": [
      {"measurement": "histone acetylation (H3K27ac) in ITK-SYK+ cells", "setting": "BMS-303141 15 μM vs DMSO vehicle control, 3 hours, 4 h", "result": "reduced histone acetylation"},
      {"measurement": "dependency of H3K27ac on ACLY function in cells with pharmacologically inactivated PD-1 pathway", "setting": "anti-PD-L1 vs isotype control pretreated mice, BMS-303141 15 μM, p=0.0131", "result": "significantly higher"}
    ]},
    {"molecule": "O=CC[C@@H](O)[C@H](O)[C@H](O)CO", "note": "[2-DG, 2-deoxy-D-glucose]", "values": [
      {"measurement": "H3K27 acetylation in Pdcd1 deficient lymphoma cells", "setting": "2-DG 1 mM, 4 h in vitro vs DMSO, p=0.0003", "result": "reduction in H3K27 acetylation"}
    ]}
  ]
}
